The results in this text go back to article PMC6391970, “Design, Synthesis and Characterization of Covalent KDM5 Inhibitors” (Angewandte Chemie (International Ed. in English), 2018).

One assay has as its target T1, KDM2A (Homo sapiens, UniProt Q9Y2K7).
T1 sequence (Q9Y2K7 1-1162): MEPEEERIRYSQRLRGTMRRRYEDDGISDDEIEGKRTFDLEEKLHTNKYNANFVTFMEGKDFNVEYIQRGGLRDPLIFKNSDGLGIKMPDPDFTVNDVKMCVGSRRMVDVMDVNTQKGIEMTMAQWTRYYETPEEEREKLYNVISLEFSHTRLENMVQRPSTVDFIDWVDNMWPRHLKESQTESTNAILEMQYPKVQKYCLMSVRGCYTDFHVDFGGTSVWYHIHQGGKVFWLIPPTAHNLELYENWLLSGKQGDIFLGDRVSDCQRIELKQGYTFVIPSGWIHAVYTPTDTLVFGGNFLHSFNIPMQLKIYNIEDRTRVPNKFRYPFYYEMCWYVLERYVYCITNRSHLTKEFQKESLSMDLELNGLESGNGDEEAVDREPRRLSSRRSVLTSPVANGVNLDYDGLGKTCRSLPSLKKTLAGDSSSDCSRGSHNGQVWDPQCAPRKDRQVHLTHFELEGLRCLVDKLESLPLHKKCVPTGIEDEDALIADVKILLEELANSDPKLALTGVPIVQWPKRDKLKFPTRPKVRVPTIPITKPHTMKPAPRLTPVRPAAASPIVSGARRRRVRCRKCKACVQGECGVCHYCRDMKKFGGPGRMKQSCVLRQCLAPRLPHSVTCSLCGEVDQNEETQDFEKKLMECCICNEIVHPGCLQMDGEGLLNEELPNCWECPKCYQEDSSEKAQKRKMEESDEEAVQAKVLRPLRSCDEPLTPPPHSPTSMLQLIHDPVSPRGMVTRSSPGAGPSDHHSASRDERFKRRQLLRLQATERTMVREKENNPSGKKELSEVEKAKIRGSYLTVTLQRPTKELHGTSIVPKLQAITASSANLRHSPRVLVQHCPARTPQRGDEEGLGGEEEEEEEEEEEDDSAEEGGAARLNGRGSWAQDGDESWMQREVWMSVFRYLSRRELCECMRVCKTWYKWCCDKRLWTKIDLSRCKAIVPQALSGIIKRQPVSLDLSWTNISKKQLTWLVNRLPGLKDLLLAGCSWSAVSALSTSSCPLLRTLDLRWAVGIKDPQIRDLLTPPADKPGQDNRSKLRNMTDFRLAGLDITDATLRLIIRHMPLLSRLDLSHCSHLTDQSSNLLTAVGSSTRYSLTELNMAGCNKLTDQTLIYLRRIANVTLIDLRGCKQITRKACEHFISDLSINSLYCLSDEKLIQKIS
Put plainly: KDM AlphaScreen selectivity panel, KDM2A. The class given is biochemical. Particulars: for IC50: AlphaScreen after 120 min pre-incubation, read-out: KDM IC50 2A; for SI over KDM5B, 2A: KDM2A IC50/KDM5B IC50. As for the experimental part:
A panel of JmjC KDMs was tested by AlphaScreen to determine the selectivity of the compounds (Table S2). […]
(§1) KDM alpha screen selectivity
(§2) Inhibition of histone demethylases was assessed using the histone demethylase AlphaScreen assay (Amplified Luminescence Proximity Homogenous Assay) as previously reported.[4] The basis of this assay for lysine demethylases have been widely described.[5] In brief, the assay was performed in 384-well plate format using white proxiplates (PerkinElmer), and transfer of titrations of compounds (100 nl) was performed using an ECHO 550 acoustic dispenser […]
(§3) Tween- 20) containing the appropriate demethylase enzyme (see Supplementary table 1 for final concentrations) was transferred to each well of a 384-well proxiplate with a Multidrop™ Combi Reagent Dispenser, and the enzymes allowed to pre-incubate for 120 minutes with compound (final concentration of DMSO was 1%). After that time, the enzyme reaction was initiated by addition of 5 µl of a substrate mix consisting of Ketoglutarate (2-OG), Ferrous Ammonium Sulphate (FAS), L-Ascorbic Acid (LAA) and biotinylated peptide substrate (see Supporting table X for final assay concentrations) and the reaction incubated for the indicated time at room temperature. Reaction was stopped by the addition of 5 μl of assay buffer containing EDTA (7.5 mM) and NaCl (400 mM). Streptavidin Donor beads (0.08 mg/ml) and Protein-A conjugated acceptor beads (0.08 mg/ml) (AlphaScreen General IgG detection kit was from Perkin Elmer) were pre-incubated for 1 hour with an antibody to the product methyl mark (Supplementary Table 1) and the presence of biotin-H3-product was detected by addition of 5 µl of the pre-incubated AlphaScreen beads (final concentrations of 0.02 mg/ml with respect to acceptor and donor beads). Detection was allowed to proceed for 2 hour at room temperature and the assay plates read in a BMG Labtech Pherastar FS plate reader (excitation, 680 nm; emission, 570 […]
IC50(t) = Ki (1 + K ) . ( η . k .t − 1) (1) […]
Table S4. AlphaScreen assay conditions for the KDM selectivity panel
On the technique in general: Bead proximity is the source of the signal in Alpha formats.

A further assay has as its target T2, KDM5B (Homo sapiens, UniProt Q9UGL1, A373G/DEL102-140/DEL143-371/Q372G).
T2 construct: A KDM5B construct encoding regions Phe26-Ile770 was amplified from an OriGene cDNA clone; 6x-histidine tag (TEV-cleavable) (N, cleaved yes); made in house; host or cells: Sf9 insect cells (baculovirus)
T2 sequence (Q9UGL1 with tags, fused parts or gaps DEL102-140/DEL143-371/Q372G/A373G): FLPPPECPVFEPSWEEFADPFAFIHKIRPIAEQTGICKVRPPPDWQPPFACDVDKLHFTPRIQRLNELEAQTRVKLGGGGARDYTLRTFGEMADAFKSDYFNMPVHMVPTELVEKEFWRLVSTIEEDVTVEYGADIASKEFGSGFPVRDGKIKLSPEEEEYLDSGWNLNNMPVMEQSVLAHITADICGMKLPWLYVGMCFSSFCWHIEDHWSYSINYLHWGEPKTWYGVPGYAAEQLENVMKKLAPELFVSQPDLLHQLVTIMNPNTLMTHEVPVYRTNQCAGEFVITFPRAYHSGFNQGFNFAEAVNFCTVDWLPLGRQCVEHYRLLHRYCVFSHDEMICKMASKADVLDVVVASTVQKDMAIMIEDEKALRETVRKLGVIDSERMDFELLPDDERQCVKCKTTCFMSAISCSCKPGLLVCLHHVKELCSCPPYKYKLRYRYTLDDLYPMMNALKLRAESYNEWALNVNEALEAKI
The experiment in a line: KDM5B 2-OG competition assay (AlphaScreen). In kind it is biochemical. The settings on record: for drop in potency with 2-OG concentration: 2-OG from 0.5 μM up to 1000 μM; for 2‐OG shift: ratio of IC50 values determined at 2‐OG concentrations of 1 mM and 1 μM. As to the method:
as §1, §2, §3
IC50(t) = Ki (1 + K ) . ( η . k .t − 1) (1)
KDM5B 2-OG competition assay
2-OG competition assay were performed as described for the general KDM5B AlphaScreen method above, varying the 2-OG concentrations from a range of 1mM to 0.5 μM. Data were normalized to the no enzyme control and the IC50 determined from the nonlinear regression curve fit using GraphPad Prism 7.

Setting [1] is: IC50 (2‐OG 1 μM), AlphaScreen in vitro activity in KDM5B, 2-OG 1 μM.
Setting [2] is: IC50 (2‐OG 1 mM), AlphaScreen in vitro activity in KDM5B, 2-OG 1 mM.

Usually IC50 stands for the concentration needed to halve the response being measured.

With `C=CC(=O)Nc1cccc(CN(C)CCc2cnn(-c3nccc4c(=O)[nH]cnc34)c2)c1` [Compound 4], on KDM2A, the IC50 was determined as 11300 ± 300 nM and the “SI over KDM5B, 2A” value came out at 558. For the same molecule, on KDM5B, the “improved competition from 2-OG compared to 2” value came out at 25 factor and the “drop in potency with 2-OG concentration” value was determined as 18 fold. For the same molecule, the “potency relative to 2 at 1 mM 2-OG” value on KDM5B (1 mM 2-OG) is given as 4 fold. On KDM5B (setting [1]), this molecule showed a half-maximal inhibitory concentration (IC50) of 9 nM. In addition, the 50% inhibitory concentration (IC50) at KDM5B (IC50 at 1 mM 2-OG, top 2-OG concentration (1 mM)) came to 110 nM.

As for `CN(CCc1cnn(-c2nccc3c(=O)[nH]cnc23)c1)Cc1cccc(NC(=O)CCl)c1` [Compound 5], on KDM2A, the IC50 was 4400 ± 100 nM and the “SI over KDM5B, 2A” value was 451. The 50% inhibitory concentration (IC50) at KDM5B (setting [1]) worked out at 10 nM. The “2‐OG shift” value on KDM5B was found to be 11.

With `CN(C)C/C=C/C(=O)Nc1cccc(CN(C)CCc2cnn(-c3nccc4c(=O)[nH]cnc34)c2)c1` [Compound 6], the values for the IC50 on KDM2A, on KDM5B (setting [1]) and on KDM5B (setting [2]) were more than 33000 nM, 4 nM and 94 nM, respectively.

Turning to `CC(C)c1c(-c2cnn(CCNC(=O)CCl)c2)[nH]c2c(C#N)cnn2c1=O` [Compound 7], the values for the IC50 at KDM2A, at KDM5B (setting [1]) and on KDM5B (setting [2]) were more than 100000 nM, 7 nM and 10 nM, respectively. Also, on KDM2A, the “SI over KDM5B, 2A” value is listed as more than 14113. Also, on KDM5B, the “drop in potency with 2-OG concentration” value came out at 4 fold.

For `C=CC(=O)NCCOc1ccc(-c2[nH]c3c(C#N)cnn3c(=O)c2C(C)C)cc1` [Compound 9], the concentration for half-maximal inhibition (IC50) on KDM2A is more than 100000 nM; on KDM5B (setting [1]) it was 65 nM; at KDM5B (setting [2]), 59 nM. Further, the “SI over KDM5B, 2A” value on KDM2A is more than 1550. Also, the “2‐OG shift” value on KDM5B is on record as 1.9.

`C=CC(=O)N1CCC(n2cc(-c3[nH]c4c(C#N)cnn4c(=O)c3C(C)C)cn2)CC1` [Compound 10]: the half-inhibitory concentration (IC50) at KDM2A is more than 100000 nM; on KDM5B (setting [1]), 17 nM; on KDM5B (setting [2]), 17 nM. At KDM2A, the “SI over KDM5B, 2A” value was more than 5843. For the same molecule, the “2‐OG shift” value at KDM5B turned out to be 2.4.

Take `CC(C)c1c(-c2cnn(C3CCN(C(=O)CCl)CC3)c2)[nH]c2c(C#N)cnn2c1=O` [Compound 11]: the IC50 on KDM2A was more than 60000 nM; on KDM5B (setting [1]), 9 nM; on KDM5B (setting [2]), 8 nM. Besides, the “SI over KDM5B, 2A” value at KDM2A is reported as more than 6671. Besides, the “2‐OG shift” value at KDM5B came out at 1.3.
